According to EP0755931A1, “Dihydropyridine and pyridine derivatives and process for their preparation” (priority 1995, dated 1997):

Molecular target: T1, human placental aromatase (Homo sapiens, UniProt P11511)
T1 construct: utilizes the human placental microsomal fraction as enzyme source; from tissue; host or cells: human placenta, microsomal fraction
T1 sequence (P11511 1-503): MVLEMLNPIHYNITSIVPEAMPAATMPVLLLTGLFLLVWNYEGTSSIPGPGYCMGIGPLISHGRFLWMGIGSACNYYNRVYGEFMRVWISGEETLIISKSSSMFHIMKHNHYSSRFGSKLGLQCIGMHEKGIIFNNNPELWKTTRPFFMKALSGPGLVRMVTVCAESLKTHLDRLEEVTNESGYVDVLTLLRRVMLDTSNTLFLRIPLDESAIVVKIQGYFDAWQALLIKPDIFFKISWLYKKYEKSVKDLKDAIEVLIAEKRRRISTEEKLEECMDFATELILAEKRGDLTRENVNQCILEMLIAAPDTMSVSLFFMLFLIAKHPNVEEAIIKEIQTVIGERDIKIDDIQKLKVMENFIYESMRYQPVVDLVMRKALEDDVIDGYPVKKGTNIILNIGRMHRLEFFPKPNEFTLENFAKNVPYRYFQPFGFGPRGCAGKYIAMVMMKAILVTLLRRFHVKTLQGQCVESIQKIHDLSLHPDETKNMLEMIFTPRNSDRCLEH
Test: Inhibition of human placental aromatase (in vitro test of Thompson and Siiteri, 3H2O release from [1β-3H]androstenedione)
Format: biochemical
Settings: human placental microsomal fraction as enzyme source; compounds incubated for 15 min at 37°C with 50 nM [1β-3H]androstenedione in the presence of NADPH
Method: Estrogens are also involved in the pathogenesis of benign prostatic hyperplasia. Endogenous estrogens are ultimately formed from either androstenedione or testosterone as immediate precursors. The reaction of central importance is the aromatization of the steroidic ring A, which is performed by the enzyme aromatase. […] In this test the aromatization rate of androstenedione into estrone was evaluated by incubating (1β-^3H) androstenedione (50 nM) in the presence of NADPH with the enzyme preparation and by measuring the amount of^3H2O formed during 15 min incubation at 37°C.

| IC50 [nM] | SMILES |
| --- | --- |
| 1.5 | CCOC(=O)C1=C(C)NC(C)=C(C#N)C1c1cccc(-n2ccnc2)c1 (racemic) [FCE 29013, 4-(3-1H-imidazol-1-yl-phenyl)-2,6-dimethyl-1,4-dihydropyridine-3-carbonitrile-5-carboxylic acid ethyl ester] |
| 12 | Cc1nc(C)c(C#N)c(-c2cccc(-n3ccnc3)c2)c1C#N [FCE 28717, 4-(3-1H-imidazol-1-yl-phenyl)-2,6-dimethylpyridine-3,5-dicarbonitrile] |
| 25 | CC1=C(C#N)C(c2cccc(-n3cncn3)c2)C(C#N)=C(C)N1 [FCE 29138, 4-[3-(1,2,4)triazol-1-yl-phenyl]-2,6-dimethyl-1,4-dihydropyridine-3,5-dicarbonitrile] |
| 1.7 | CC1=C(C#N)C(c2cccc(-n3ccnc3)c2)C(C#N)=C(C)N1 [FCE 28718, 4-(3-1H-imidazol-1-yl-phenyl)-2,6-dimethyl-1,4-dihydropyridine-3,5-dicarbonitrile] |
